Test results: patent US20230085307A1, “PYRIDAZINONE COMPOUND AND HERBICIDE” (NISSAN CHEMICAL CORPORATION, priority 2019, published 2023)

Test system: Japanese bulrush
Assay: Test Example 1: herbicidal activity, application before weed generation under submerged conditions (Table 16, symbol B)
Format: in vivo, Japanese bulrush (Schoenoplectus juncoides)
Conditions: amount of applied herbicide 320 g/ha
Procedure, shortened: (§1)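 Alluvial soil was flooded to 4 cm depth, weed seeds were sown mixed and 2.5-leaf rice seedlings were transplanted. On sowing day, the compound's emulsion, diluted in water to a set dose, was applied to the water surface. Plants grew at 25–30 °C and were scored 0–5 after three weeks.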

SMILES | Herbicidal effect, B: Japanese bulrush
COc1ccc2c(-c3c(OC(=O)c4ccccc4OC)c(C)nn(C)c3=O)c(-c3ccccc3OC)sc2c1 [3-158] | 5 (Herbicidal rate of 90% or more (almost completely withered))

Test system: oval-leafed pondweed
Assay: Test Example 1: herbicidal activity, application before weed generation under submerged conditions (Table 16, symbol C)
Format: in vivo, oval-leafed pondweed (Monochoria vaginalis)
Conditions: amount of applied herbicide 320 g/ha
Procedure, shortened: as §1

SMILES | Herbicidal effect, C: oval-leafed pondweed
COc1ccc2c(-c3c(OC(=O)c4ccccc4OC)c(C)nn(C)c3=O)c(-c3ccccc3OC)sc2c1 [3-158] | 5 (Herbicidal rate of 90% or more (almost completely withered))

Test system: Japanese bulrush
Assay: Test Example 2: herbicidal activity, application during weed generation under submerged conditions (Table 17, symbol B)
Format: in vivo, Japanese bulrush (Schoenoplectus juncoides)
Conditions: AAH 320 g/ha; application during weed generation, submerged conditions
Procedure, shortened: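 Wagner pot, alluvial soil, 4 cm flood; mixed sowing of all species; greenhouse 25° C.–30° C. Emulsifiable formulation, water-diluted to predetermined dose, applied to paddy water at 1–2 leaf stage. Effect rated at 3 wk using the earlier test's scoring criteria.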

SMILES | herbicidal effect rating, B: Japanese bulrush
COc1ccc2c(-c3c(OC(=O)c4ccccc4OC)c(C)nn(C)c3=O)c(-c3ccccc3OC)sc2c1 [3-158] | 3 (Herbicidal rate of 40% or more and less than 70%)

Test system: Chinese sprangletop
Assay: Test Example 3: herbicidal effect by foliage application, Wagner pot (Table 18, symbol D)
Format: in vivo, chinese sprangletop (Leptochloa chinensis)
Conditions: 320 g/ha
Procedure, shortened: (§2)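 Plants were sown in alluvial soil held under 0.1–0.5 cm standing water and grown 14 days in a greenhouse at 25–30 °C. An emulsifiable formulation, water-diluted to the set dose, was then sprayed onto the foliage, and effects were scored three weeks later using previously defined criteria.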

SMILES | herbicidal effect on Chinese sprangletop (D)
COc1ccc2c(-c3c(OC(=O)c4ccccc4OC)c(C)nn(C)c3=O)c(-c3ccccc3OC)sc2c1 [3-158] | 3 (Herbicidal rate of 40% or more and less than 70%)

Test system: rice flat sedge
Assay: Test Example 3: herbicidal effect by foliage application, Wagner pot (Table 18, symbol E)
Format: in vivo, rice flat sedge (Cyperus iria)
Conditions: 320 g/ha
Procedure, shortened: as §2

SMILES | herbicidal effect on rice flat sedge (E)
COc1ccc2c(-c3c(OC(=O)c4ccccc4OC)c(C)nn(C)c3=O)c(-c3ccccc3OC)sc2c1 [3-158] | 4 (Herbicidal rate of 70% or more and less than 90%)

Test system: green foxtail
Assay: Test Example 4: herbicidal effect by soil treatment (Table 19, symbol G)
Format: in vivo, green foxtail (Setaria viridis)
Conditions: amount of applied herbicide 320 g/ha
Procedure, shortened: (§3)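 Herbicidal effect was rated 3 weeks after treatment, using the scoring criteria of an earlier test. The compound, formulated as an emulsion and diluted in water to a set herbicide amount, had been sprayed uniformly on soil over freshly sown seeds. Growth took place in a greenhouse at 25° C. to 30° C.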

SMILES | Herbicidal effect by soil treatment, G: green foxtail
COc1ccc2c(-c3c(OC(=O)c4ccccc4OC)c(C)nn(C)c3=O)c(-c3ccccc3OC)sc2c1 [3-158] | 0 (Herbicidal rate of 5% or less (almost no effect))

Test system: wild oat
Assay: Test Example 4: herbicidal effect by soil treatment (Table 19, symbol I)
Format: in vivo, wild oat (Avena fatua)
Conditions: amount of applied herbicide 320 g/ha
Procedure, shortened: as §3

SMILES | Herbicidal effect by soil treatment, I: wild oat
COc1ccc2c(-c3c(OC(=O)c4ccccc4OC)c(C)nn(C)c3=O)c(-c3ccccc3OC)sc2c1 [3-158] | 0 (Herbicidal rate of 5% or less (almost no effect))

Test system: Italian ryegrass
Assay: Test Example 4: herbicidal effect by soil treatment (Table 19, symbol K)
Format: in vivo, Italian ryegrass (Lolium multiflorum)
Conditions: amount of applied herbicide 320 g/ha
Procedure, shortened: as §3

SMILES | Herbicidal effect by soil treatment, K: Italian ryegrass
COc1ccc2c(-c3c(OC(=O)c4ccccc4OC)c(C)nn(C)c3=O)c(-c3ccccc3OC)sc2c1 [3-158] | 0 (Herbicidal rate of 5% or less (almost no effect))

Test system: windgrass
Assay: Test Example 4: herbicidal effect by soil treatment (Table 19, symbol L)
Format: in vivo, windgrass (Apera spica-venti)
Conditions: amount of applied herbicide 320 g/ha
Procedure, shortened: as §3

SMILES | Herbicidal effect by soil treatment, L: windgrass
COc1ccc2c(-c3c(OC(=O)c4ccccc4OC)c(C)nn(C)c3=O)c(-c3ccccc3OC)sc2c1 [3-158] | 0 (Herbicidal rate of 5% or less (almost no effect))

Test system: redroot pigweed
Assay: Test Example 4: herbicidal effect by soil treatment (Table 19, symbol N)
Format: in vivo, redroot pigweed (Amaranthus retroflexus)
Conditions: amount of applied herbicide 320 g/ha
Procedure, shortened: as §3

SMILES | Herbicidal effect by soil treatment, N: redroot pigweed
COc1ccc2c(-c3c(OC(=O)c4ccccc4OC)c(C)nn(C)c3=O)c(-c3ccccc3OC)sc2c1 [3-158] | 2 (Herbicidal rate of 20% or more and less than 40%)

Test system: chickweed
Assay: Test Example 4: herbicidal effect by soil treatment (Table 19, symbol P)
Format: in vivo, common chickweed (Stellaria media)
Conditions: amount of applied herbicide 320 g/ha
Procedure, shortened: as §3

SMILES | Herbicidal effect by soil treatment, P: chickweed
COc1ccc2c(-c3c(OC(=O)c4ccccc4OC)c(C)nn(C)c3=O)c(-c3ccccc3OC)sc2c1 [3-158] | 1 (Herbicidal rate of 5% or more and less than 20%)

Test system: southern crabgrass
Assay: Test Example 5: herbicidal effect by foliage application, plastic box (Table 20, symbol F)
Format: in vivo, southern crabgrass (Digitaria ciliaris)
Conditions: 320 g/ha, foliage application after 14-day growth, evaluated three weeks after application
Procedure, shortened: (§4)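 Foliar spray test: emulsion formulation diluted in water to a set application rate, sprayed onto 14-day-old plants raised in diluvial soil at 25° C to 30° C under glass. Both herbicidal effect and crop effect rated visually three weeks later.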

SMILES | herbicidal effect on F: southern crabgrass (evaluation grade 0-5)
COc1ccc2c(-c3c(OC(=O)c4ccccc4OC)c(C)nn(C)c3=O)c(-c3ccccc3OC)sc2c1 [3-158] | 5 (Herbicidal rate of 90% or more (almost completely withered))

Test system: wild oat
Assay: Test Example 5: herbicidal effect by foliage application, plastic box (Table 20, symbol I)
Format: in vivo, wild oat (Avena fatua)
Conditions: 320 g/ha, foliage application after 14-day growth, evaluated three weeks after application
Procedure, shortened: as §4

SMILES | herbicidal effect on I: wild oat (evaluation grade 0-5)
COc1ccc2c(-c3c(OC(=O)c4ccccc4OC)c(C)nn(C)c3=O)c(-c3ccccc3OC)sc2c1 [3-158] | 3 (Herbicidal rate of 40% or more and less than 70%)

Test system: windgrass
Assay: Test Example 5: herbicidal effect by foliage application, plastic box (Table 20, symbol L)
Format: in vivo, windgrass (Apera spica-venti)
Conditions: 320 g/ha, foliage application after 14-day growth, evaluated three weeks after application
Procedure, shortened: as §4

SMILES | herbicidal effect on L: windgrass (evaluation grade 0-5)
COc1ccc2c(-c3c(OC(=O)c4ccccc4OC)c(C)nn(C)c3=O)c(-c3ccccc3OC)sc2c1 [3-158] | 5 (Herbicidal rate of 90% or more (almost completely withered))

Test system: redroot pigweed
Assay: Test Example 5: herbicidal effect by foliage application, plastic box (Table 20, symbol N)
Format: in vivo, redroot pigweed (Amaranthus retroflexus)
Conditions: 320 g/ha, foliage application after 14-day growth, evaluated three weeks after application
Procedure, shortened: as §4

SMILES | herbicidal effect on N: redroot pigweed (evaluation grade 0-5)
COc1ccc2c(-c3c(OC(=O)c4ccccc4OC)c(C)nn(C)c3=O)c(-c3ccccc3OC)sc2c1 [3-158] | 5 (Herbicidal rate of 90% or more (almost completely withered))

Test system: lambsquarters
Assay: Test Example 5: herbicidal effect by foliage application, plastic box (Table 20, symbol O)
Format: in vivo, lambsquarters (Chenopodium album)
Conditions: 320 g/ha, foliage application after 14-day growth, evaluated three weeks after application
Procedure, shortened: as §4

SMILES | herbicidal effect on O: lambsquarters (evaluation grade 0-5)
COc1ccc2c(-c3c(OC(=O)c4ccccc4OC)c(C)nn(C)c3=O)c(-c3ccccc3OC)sc2c1 [3-158] | 5 (Herbicidal rate of 90% or more (almost completely withered))

Test system: persian speedwell
Assay: Test Example 5: herbicidal effect by foliage application, plastic box (Table 20, symbol R)
Format: in vivo, Persian speedwell (Veronica persica)
Conditions: 320 g/ha, foliage application after 14-day growth, evaluated three weeks after application
Procedure, shortened: as §4

SMILES | herbicidal effect on R: persian speedwell (evaluation grade 0-5)
COc1ccc2c(-c3c(OC(=O)c4ccccc4OC)c(C)nn(C)c3=O)c(-c3ccccc3OC)sc2c1 [3-158] | 5 (Herbicidal rate of 90% or more (almost completely withered))
